Assay in all cases: Bliss excess, mean over the matrix (fraction); higher = more synergy
Test [1] deals with A4-Fuk (B-Lymphoblastic Leukemia). The method in brief:
(§1)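 Bliss excess equals the observed combination effect minus the expected value EA + EB − EA·EB, where EA and EB are the effects of each agent alone. Combination Emax is the second-highest inhibition within the matrix. Inhibition was scaled from CellTiter-Glo 2.0 luminescence, with 0 set by vehicle wells and 1 by blank wells, after 72 hours of two-drug dosing of cells plated in 1536-well plates.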

The test system of a further test is COLO-679 (Melanoma). The method in brief:
as §1

The subject of test [2] is Ca-Ski (Cervical Carcinoma). The method in brief:
as §1

The test system of a further test is EW-1 (Ewing's Sarcoma). The method in brief:
as §1

Test [3] concerns G-401 (Other Solid Carcinomas). In short, it runs like this:
as §1

For test [4], the system named is HAL-01 (B-Lymphoblastic Leukemia). In short, it runs like this: as §1
The test system of test [5] is HCC1937 (Breast Carcinoma). The method in brief:
as §1

A further test has as its system Hey (Ovarian Carcinoma). In short, it runs like this: as §1
For test [6], the system named is KOPN-8 (B-Lymphoblastic Leukemia). In short, it runs like this: as §1
The test system of test [7] is MDA-MB-453 (Breast Carcinoma). In short, it runs like this:
as §1

For test [8], the system named is ML-2 (Acute Myeloid Leukemia). In short, it runs like this: as §1
Test [9] concerns MOLT-4 (T-Lymphoblastic Leukemia). In short, it runs like this:
as §1

The test system of test [10] is NCI-H1838 (Lung Adenocarcinoma). The method in brief: as §1
Test [11] relates to NCI-H1993 (Lung Adenocarcinoma). In short, it runs like this: as §1
The test system of test [12] is NCI-H650 (Lung Adenocarcinoma). In short, it runs like this:
as §1

Test [13] relates to OE33 (Esophageal Adenocarcinoma). In short, it runs like this:
as §1

A further test relates to SK-N-AS (Neuroblastoma). In short, it runs like this:
as §1

Test [14] deals with SNU-387 (Hepatocellular Carcinoma). The method in brief: as §1
Test [15] concerns SW872 (Other Solid Carcinomas). In short, it runs like this:
as §1

For test [16], the system named is MV-4-11 (Acute Myeloid Leukemia). In short, it runs like this:
as §1

Among the data in the supplement of paper PMC11061612 are Bliss excess values, retold here.

Regarding `CN(C)CCCOc1ccc(-c2ccc3ncc4c(c3c2)n(C2CCOCC2)c(=O)n4C)cn1` [AZD0156] + O=C(c1cc(Cc2n[nH]c(=O)c3ccccc23)ccc1F)N1CCN(C(=O)C2CC2)CC1 [Olaparib] (first compound max 3 µM, partner max 3 µM), the Bliss excess in test [1] is 0.0383; with COLO-679 (Melanoma), -0.0013; in test [2] it was 0.063; with EW-1 (Ewing's Sarcoma), 0.231; in [3], 0.0269; in test [4], 0.191. The Bliss excess in test [5] is 0.0316; in the test with Hey (Ovarian Carcinoma), 0.106; in [6] it was 0.31; in test [7], -0.0266; in test [8], 0.117; in test [9], 0.123. Also, the Bliss excess in [10] was -0.0093; in test [11], -0.0191; in [12] it was -0.014; in test [13], 0.0228; with SK-N-AS (Neuroblastoma), -0.0959; in [14] it was 0.0072. The Bliss excess in test [15] is -0.0318.

On to `C=CCn1c(=O)c2cnc(Nc3ccc(N4CCN(C)CC4)cc3)nc2n1-c1cccc(C(C)(C)O)n1` [AZD1775] + C1CN(CCC1(C(=O)N[C@@H](CCO)C2=CC=C(C=C2)Cl)N)C3=NC=NC4=C3C=CN4 [Capivasertib] (first compound max 3 µM, partner max 3 µM), for which the Bliss excess in test [1] is -0.0977; with COLO-679 (Melanoma) it was -0.0625; in test [2], 0.0161; in the test on EW-1 (Ewing's Sarcoma), 0.0379; in test [3], -0.0241; in test [4], -0.0528. Further, the Bliss excess in test [5] was -0.0385; in the test on Hey (Ovarian Carcinoma), -0.0475; in [6] it was 0.0369; in test [7], -0.0524; in test [8] it was -0.0148; in test [9] it was 0.0536. Besides, the Bliss excess in test [10] was -0.0978; in test [11] it was -0.0096; in test [12], 0.0136; in test [13], -0.0326; in the test with SK-N-AS (Neuroblastoma) it was -0.0806; in [14], -0.0435. In addition, the Bliss excess in test [15] is -0.106.

On to `C=CCn1c(=O)c2cnc(Nc3ccc(N4CCN(C)CC4)cc3)nc2n1-c1cccc(C(C)(C)O)n1` [AZD1775] + C[C@@H]1COCCN1C2=NC(=NC(=C2)C3(CC3)[S@](=N)(=O)C)C4=C5C=CNC5=NC=C4 [AZD6738] (first compound max 1 µM, partner max 10 µM), for which the Bliss excess in test [1] was -0.0203; in the test on COLO-679 (Melanoma), -0.0995; in test [2], 0.0052; in the test on EW-1 (Ewing's Sarcoma), 0.0194; in test [3], -0.0293; in [5], -0.0717. Also, the Bliss excess in the test with Hey (Ovarian Carcinoma) was 0.0385; in test [6] it was -0.0006; in test [7] it was 0.0214; in test [8], 0.0095; in [9] it was 0.0397; in test [16], -0.0103. Besides, the Bliss excess was -0.0173 in [10]; -0.0727 in test [11]; 0.0062 in test [12]; -0.0081 in [13]; 0.0189 with SK-N-AS (Neuroblastoma); -0.0302 in test [14]. Also, in test [15], the Bliss excess amounted to 0.053.

Take `CN(CCO)CC[C@H](CSc1ccccc1)Nc1ccc(S(=O)(=O)NC(=O)c2ccc(N3CCC([C@@H](O)c4ccccc4-c4ccc(Cl)cc4)CC3)cc2)cc1S(=O)(=O)C(F)(F)F` [AZD4320] + C=CCn1c(=O)c2cnc(Nc3ccc(N4CCN(C)CC4)cc3)nc2n1-c1cccc(C(C)(C)O)n1 [AZD1775] (first compound max 1 µM, partner max 1 µM): the Bliss excess in [1] is -0.0107; in the test with COLO-679 (Melanoma), -0.0078; in test [2], 0.0198; with EW-1 (Ewing's Sarcoma), 0.0581; in [3] it was -0.0058; in [4], 0.0695. Moreover, the Bliss excess was 0.0878 in test [5]; -0.053 with Hey (Ovarian Carcinoma); 0.0016 in test [6]; 0.047 in test [7]; -0.0228 in [8]; 0.0674 in test [9]. Further, the Bliss excess in [10] is -0.0311; in [11] it was 0.0951; in test [12], 0.0369; in [13], -0.0093; with SK-N-AS (Neuroblastoma), -0.0292; in test [14] it was 0.0102. For the same molecule, the Bliss excess in [15] is 0.0035.

In the case of `CS(=O)(=O)CCNCc1ccc(-c2ccc3ncnc(Nc4ccc(OCc5cccc(F)c5)c(Cl)c4)c3c2)o1` [Lapatinib] + NC1(c2ccc(-c3nc4ccn5c(=O)[nH]nc5c4cc3-c3ccccc3)cc2)CCC1 [MK-2206] (first compound max 10 µM, 7x7, partner max 10 µM), the Bliss excess in test [1] was 0.0825; in the test with COLO-679 (Melanoma), -0.031; in test [2] it was 0.0103; in test [4], 0.0687; in [5] it was -0.0343; in test [6], -0.0586. The Bliss excess in test [7] was 0.0474; in test [8], 0.0017; in [9], 0.0866; in [16], 0.0371; in test [10] it was -0.0422; in [11], -0.0147. Besides, the Bliss excess in [12] was -0.0464; in [13], -0.0133; in the test on SK-N-AS (Neuroblastoma), -0.0327; in test [14], 0.0033; in test [15], -0.0066.

Regarding `CCc1c2c(nc3ccc(O)cc13)-c1cc3c(c(=O)n1C2)COC(=O)[C@]3(O)CC` [SN-38] + O=C(c1cc(Cc2n[nH]c(=O)c3ccccc23)ccc1F)N1CCN(C(=O)C2CC2)CC1 [Olaparib] (first compound max 0.3 µM, 7x7, partner max 10 µM), the Bliss excess is 0.0164 in test [1]; 0.005 with COLO-679 (Melanoma); 0.0458 in test [2]; 0.0642 with EW-1 (Ewing's Sarcoma); 0.0568 in test [4]; 0.0559 in the test on Hey (Ovarian Carcinoma). The Bliss excess is 0.0271 in test [6]; 0.0456 in test [7]; 0.0633 in test [8]; 0.0881 in test [9]; 0.0486 in test [16]; 0.0628 in [11]. Moreover, the Bliss excess in test [13] is 0.0383; with SK-N-AS (Neuroblastoma) it was 0.096; in [14], -0.0372; in test [15], 0.0634.

For the molecule `CC1(C)CCC(CN2CCN(c3ccc(C(=O)NS(=O)(=O)c4ccc(NCC5CCOCC5)c([N+](=O)[O-])c4)c(Oc4cnc5[nH]ccc5c4)c3)CC2)=C(c2ccc(Cl)cc2)C1` [Venetoclax] + CS(=O)(=O)CCNCc1ccc(-c2ccc3ncnc(Nc4ccc(OCc5cccc(F)c5)c(Cl)c4)c3c2)o1 [Lapatinib] (first compound max 1 µM, 7x7, partner max 10 µM), the Bliss excess in test [1] is -0.0406; with COLO-679 (Melanoma), -0.0634; in test [2], -0.0249; in test [4], 0.102; in test [7] it was -0.0106; in test [8], 0.146. The Bliss excess is 0.0967 in test [9]; 0.0293 in [16]; -0.0311 in test [11]; -0.0315 in test [13]; -0.0432 in the test with SK-N-AS (Neuroblastoma); -0.0514 in test [14]. Besides, the Bliss excess in test [15] is -0.0313.
